In patent publication US20040161786A1, “Gene panel participative in hepatic stellate cell activation” (priority 2001, published 2004):

System: hepatic fibrosis
Test: Dimethylnitrosamine (DMN)-induced hepatic fibrosis, hydroxyproline (Hyp) in the liver
Type: in vivo
Conditions: SD male rat, DMN 10 mg/kg i.p. three times a week for four weeks, diet containing 0.5% L-cysteine vs 0.5% casein, 28th day
Method: Hepatic fibrosis was induced by intraperitoneally administering 10 mg/kg of dimethylnitrosamine (DMN) to a 6-week SD male rat three times a week for four weeks. Then, an experimental diet containing 0.5% of L-cysteine (Cys) as a subject and that containing 0.5% of casein as a control were fed from the initiation date of the DMN administration. On the 28th day from the initiation of the […] administration, the liver was sampled from the subject and the amount of hydroxyproline (Hyp) in the liver was measured as an index of hepatic fibrosis using an amino acid analyzer.

In the case of N[C@@H](CS)C(=O)O [cysteine, L-cysteine], the “increase in Hyp in the liver (index of hepatic fibrosis)” value is reported as “significantly suppressed”.
